Measurements published in PubChem BioAssay (NCI).
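48-hour exposure; five concentrations; linearly interpolated endpoints. Here, GI50 denotes the concentration required for 50% inhibition of growth. The concentration for full growth arrest is given as TGI.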

Experiments:
Assay in all cases: growth of human tumour cells (NCI), 48 h
CCRF-CEM leukemia = test system: CCRF-CEM leukemia
MCF7 breast = test system: MCF7 breast
NCI-H23 lung = test system: NCI-H23 lung
NCI/ADR-RES ovarian = test system: NCI/ADR-RES ovarian
NCI-H226 lung = test system: NCI-H226 lung
SW-620 colon = test system: SW-620 colon
HOP-62 NSCLC = test system: HOP-62 NSCLC
HCT-15 colon = test system: HCT-15 colon
OVCAR-3 ovarian = test system: OVCAR-3 ovarian
SF-268 CNS = test system: SF-268 CNS
HCC-2998 colon = test system: HCC-2998 colon
K-562 leukemia = test system: K-562 leukemia
OVCAR-8 ovarian = test system: OVCAR-8 ovarian
KM12 colon = test system: KM12 colon
786-0 renal = test system: 786-0 renal
MDA-MB-468 breast = test system: MDA-MB-468 breast
SR leukemia = test system: SR leukemia
NCI-H522 lung = test system: NCI-H522 lung
MOLT-4 leukemia = test system: MOLT-4 leukemia
HCT-116 colon = test system: HCT-116 colon
HOP-92 NSCLC = test system: HOP-92 NSCLC
UACC-62 melanoma = test system: UACC-62 melanoma
OVCAR-5 ovarian = test system: OVCAR-5 ovarian
SN12C renal = test system: SN12C renal
IGROV1 ovarian = test system: IGROV1 ovarian
HS 578T breast = test system: HS 578T breast
TK-10 renal = test system: TK-10 renal
M14 melanoma = test system: M14 melanoma
RPMI-8226 leukemia = test system: RPMI-8226 leukemia
A549 NSCLC = test system: A549 NSCLC
MALME-3M melanoma = test system: MALME-3M melanoma
SF-539 CNS = test system: SF-539 CNS
SK-MEL-5 melanoma = test system: SK-MEL-5 melanoma
SNB-19 CNS = test system: SNB-19 CNS
RXF 393 renal = test system: RXF 393 renal
A498 renal = test system: A498 renal
HL-60(TB) leukemia = test system: HL-60(TB) leukemia
ACHN renal = test system: ACHN renal
BT-549 breast = test system: BT-549 breast
SF-295 CNS = test system: SF-295 CNS
COLO 205 colon = test system: COLO 205 colon
T-47D breast = test system: T-47D breast
HT29 colon = test system: HT29 colon
MDA-MB-435 = test system: MDA-MB-435
SK-OV-3 ovarian = test system: SK-OV-3 ovarian
NCI-H460 lung = test system: NCI-H460 lung
LOX IMVI melanoma = test system: LOX IMVI melanoma
DU-145 prostate = test system: DU-145 prostate
EKVX NSCLC = test system: EKVX NSCLC
U251 CNS = test system: U251 CNS
CAKI-1 renal = test system: CAKI-1 renal
UACC-257 melanoma = test system: UACC-257 melanoma
PC-3 prostate = test system: PC-3 prostate
SK-MEL-28 melanoma = test system: SK-MEL-28 melanoma
OVCAR-4 ovarian = test system: OVCAR-4 ovarian

For O=C1Nc2ccc(Cl)cc2/C1=C/c1cccc(OCc2ccccn2)c1, the GI50 (CCRF-CEM leukemia) was 30.6 µM, the TGI (CCRF-CEM leukemia) was over 100 µM and the GI50 (MCF7 breast) was 7.15 µM. The TGI (MCF7 breast) was 20.7 µM, the GI50 (NCI-H23 lung) was 14.5 µM and the TGI (NCI-H23 lung) was 28.1 µM. For the same compound, the GI50 (NCI/ADR-RES ovarian) was 14.2 µM, the TGI (NCI/ADR-RES ovarian) was 34 µM and the GI50 (NCI-H226 lung) was 16.3 µM. The TGI (NCI-H226 lung) was 38.5 µM, the GI50 (SW-620 colon) was 17.5 µM and the TGI (SW-620 colon) was 34.3 µM. The GI50 (HOP-62 NSCLC) was 15.8 µM, the TGI (HOP-62 NSCLC) was 31.3 µM and the GI50 (HCT-15 colon) was 13.7 µM. It also gave a TGI (HCT-15 colon) of 30.3 µM, a GI50 (OVCAR-3 ovarian) of 16.1 µM and a TGI (OVCAR-3 ovarian) of 30.1 µM. It also gave a GI50 (SF-268 CNS) of 17.6 µM, a TGI (SF-268 CNS) of 38.9 µM and a GI50 (HCC-2998 colon) of 17.8 µM. For the same compound, the TGI (HCC-2998 colon) was 31.9 µM, the GI50 (K-562 leukemia) was 19 µM and the TGI (K-562 leukemia) was over 100 µM. It also gave a GI50 (OVCAR-8 ovarian) of 15.4 µM, a TGI (OVCAR-8 ovarian) of 30.3 µM and a GI50 (KM12 colon) of 18.1 µM. The TGI (KM12 colon) was 33.8 µM, the GI50 (786-0 renal) was 16.4 µM and the TGI (786-0 renal) was 31.1 µM. The GI50 (MDA-MB-468 breast) was 11.9 µM, the TGI (MDA-MB-468 breast) was 25.5 µM and the GI50 (SR leukemia) was 13 µM. For the same compound, the TGI (SR leukemia) was 41.9 µM, the GI50 (NCI-H522 lung) was 14.6 µM and the TGI (NCI-H522 lung) was 29.9 µM. For the same compound, the GI50 (MOLT-4 leukemia) was 12.4 µM, the TGI (MOLT-4 leukemia) was 36.8 µM and the GI50 (HCT-116 colon) was 13 µM. For the same compound, the TGI (HCT-116 colon) was 27.2 µM, the GI50 (HOP-92 NSCLC) was 14.7 µM and the TGI (HOP-92 NSCLC) was 46.2 µM. The GI50 (UACC-62 melanoma) was 11.9 µM, the TGI (UACC-62 melanoma) was 24.4 µM and the GI50 (OVCAR-5 ovarian) was 15.9 µM. The TGI (OVCAR-5 ovarian) was 30.4 µM, the GI50 (SN12C renal) was 15.3 µM and the TGI (SN12C renal) was 28.9 µM. The GI50 (IGROV1 ovarian) was 15.7 µM, the TGI (IGROV1 ovarian) was 31.2 µM and the GI50 (HS 578T breast) was 17.7 µM. The TGI (HS 578T breast) was 45.7 µM, the GI50 (TK-10 renal) was 18.7 µM and the TGI (TK-10 renal) was 33.5 µM. The GI50 (M14 melanoma) was 16.3 µM, the TGI (M14 melanoma) was 31.2 µM and the GI50 (RPMI-8226 leukemia) was 20 µM. It also gave a TGI (RPMI-8226 leukemia) of over 100 µM, a GI50 (A549 NSCLC) of 17.8 µM and a TGI (A549 NSCLC) of 38.2 µM. The GI50 (MALME-3M melanoma) was 15.4 µM, the TGI (MALME-3M melanoma) was 29 µM and the GI50 (SF-539 CNS) was 16 µM. It also gave a TGI (SF-539 CNS) of 29.5 µM, a GI50 (SK-MEL-5 melanoma) of 17 µM and a TGI (SK-MEL-5 melanoma) of 30.7 µM. The GI50 (SNB-19 CNS) was 15.7 µM, the TGI (SNB-19 CNS) was 29.3 µM and the GI50 (RXF 393 renal) was 11.9 µM. It also gave a TGI (RXF 393 renal) of 24.5 µM, a GI50 (A498 renal) of 18.2 µM and a TGI (A498 renal) of 32.7 µM. For the same compound, the GI50 (HL-60(TB) leukemia) was 19.2 µM, the TGI (HL-60(TB) leukemia) was 52.5 µM and the GI50 (ACHN renal) was 15 µM. The TGI (ACHN renal) was 30 µM, the GI50 (BT-549 breast) was 14.1 µM and the TGI (BT-549 breast) was 27.7 µM. The GI50 (SF-295 CNS) was 15.5 µM, the TGI (SF-295 CNS) was 29.1 µM and the GI50 (COLO 205 colon) was 17.5 µM. The TGI (COLO 205 colon) was 33 µM, the GI50 (T-47D breast) was 13.4 µM and the TGI (T-47D breast) was 30.6 µM. It also gave a GI50 (HT29 colon) of 17.4 µM, a TGI (HT29 colon) of 32.8 µM and a GI50 (MDA-MB-435) of 18.4 µM. The TGI (MDA-MB-435) was 36 µM, the GI50 (SK-OV-3 ovarian) was 20.2 µM and the TGI (SK-OV-3 ovarian) was 47 µM. It also gave a GI50 (NCI-H460 lung) of 18 µM, a TGI (NCI-H460 lung) of 34.5 µM and a GI50 (LOX IMVI melanoma) of 13.3 µM. For the same compound, the TGI (LOX IMVI melanoma) was 28.2 µM, the GI50 (DU-145 prostate) was 17.8 µM and the TGI (DU-145 prostate) was 31.8 µM. The GI50 (EKVX NSCLC) was 8.43 µM, the TGI (EKVX NSCLC) was 21.1 µM and the GI50 (U251 CNS) was 14.6 µM. The TGI (U251 CNS) was 28.9 µM, the GI50 (CAKI-1 renal) was 15.3 µM and the TGI (CAKI-1 renal) was 32 µM. The GI50 (UACC-257 melanoma) was 15.2 µM, the TGI (UACC-257 melanoma) was 28.7 µM and the GI50 (PC-3 prostate) was 19.4 µM. It also gave a TGI (PC-3 prostate) of 64.4 µM, a GI50 (SK-MEL-28 melanoma) of 16.8 µM and a TGI (SK-MEL-28 melanoma) of 30.5 µM. The GI50 (OVCAR-4 ovarian) was 18.3 µM and the TGI (OVCAR-4 ovarian) was 54.1 µM.
